Activity calls are given as the source filed them. The calls are words filed in the database; no cut-off is given here.
target: Histamine H1 receptor (Homo sapiens) (UniProt P35367); assay: Antagonist activity at H1R in human HeLa cells assessed as inhibition of histamine-induced intracellular calcium mobilization at 10 times Ki incubated for 18 to 20 hrs prior to Fluo-4NW dye addition for 1 hr followed by compound washout and subsequent stimulation with histamine at 5 mins interval and measured up to 2 hrs by fluorescence assay; assay type: functional, cell-based
Sequence (P35367 whole entry): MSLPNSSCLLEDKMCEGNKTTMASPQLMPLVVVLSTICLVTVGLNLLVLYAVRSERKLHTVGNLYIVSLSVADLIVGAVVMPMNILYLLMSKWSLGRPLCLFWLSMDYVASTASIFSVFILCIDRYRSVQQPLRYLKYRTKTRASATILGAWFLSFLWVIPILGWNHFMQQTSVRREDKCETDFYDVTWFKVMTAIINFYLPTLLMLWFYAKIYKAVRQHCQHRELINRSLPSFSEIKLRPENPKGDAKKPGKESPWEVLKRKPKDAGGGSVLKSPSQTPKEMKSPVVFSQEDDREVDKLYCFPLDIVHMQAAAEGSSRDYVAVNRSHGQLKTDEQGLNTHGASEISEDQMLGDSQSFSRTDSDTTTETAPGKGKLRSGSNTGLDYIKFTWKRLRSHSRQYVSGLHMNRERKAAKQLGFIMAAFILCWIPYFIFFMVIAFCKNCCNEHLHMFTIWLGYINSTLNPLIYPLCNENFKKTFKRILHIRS

| inhibition | Compound |
| --- | --- |
| 100% | Clc1ccc2c(c1)CCc1cccnc1C2=C1CCN(CC2CCC2)CC1 |
| 100% | Clc1ccc2c(c1)CCc1cccnc1C2=C1CCN(CC2CC2)CC1 |
| Active | Cc1cncc(CN2CCC(=C3c4ccc(Cl)cc4CCc4cccnc43)CC2)c1 |
| 100% | Clc1ccc2c(c1)CCc1cccnc1C2=C1CCN(CC2CCCC2)CC1 |

From ChEMBL document CHEMBL4364298
